For 13 compounds, EC50 results are on record in patent publication US9505762B2, “Purine derivatives as CB2 receptor agonists” (Hoffmann-La Roche Inc., priority 2013, dated 2016).

Structures are written as SMILES.

In one assay the target is human CB1 receptors (Homo sapiens (Human), UniProt P21554). The assay can be described thus: functional cAMP assay, CB1. It is filed as cell-based. Particulars: CHO cells expressing human CB1. The method, then:
(§1) The growth medium was exchanged with Krebs Ringer Bicarbonate buffer with 1 mM IBMX and incubated at 30° C. for 30 min. Compounds were added to a final assay volume of 100 μl and incubated for 30 min at 30° C. Using the cAMP-Nano-TRF detection kit the assay (Roche Diagnostics) was stopped by the addition of 50 μl lysis reagent (Tris, NaCl, 1.5% Triton X100, 2.5% NP40, 10% NaN3) and 50 μl detection solutions (20 μM mAb Alexa700-cAMP 1:1, and 48 μM Ruthenium-2-AHA-cAMP) and shaken for 2 h at room temperature. The time-resolved energy transfer is measured by a TRF reader (Evotec Technologies GmbH), equipped with a ND:YAG laser as excitation source. The plate is measured twice with the excitation at 355 nm and at the emission with a delay of 100 ns and a gate of 100 ns, total exposure time 10 s at 730 (bandwidth 30 nm) or 645 nm (bandwidth 75 nm), respectively.
(§2) EC50 values were determined using Activity Base analysis (ID Business Solution, Limited).
Background: Cyclic AMP is a second messenger, typically raised through Gs and lowered through Gi signalling.

In a further assay the target is human CB2 receptors (Homo sapiens (Human), UniProt P34972). The assay can be described thus: functional cAMP assay, CB2. Type of assay: cell-based. Conditions: CHO cells expressing human CB2. As for the experimental part:
as §1, §2

Sequence of human CB2 receptors (P34972 whole entry): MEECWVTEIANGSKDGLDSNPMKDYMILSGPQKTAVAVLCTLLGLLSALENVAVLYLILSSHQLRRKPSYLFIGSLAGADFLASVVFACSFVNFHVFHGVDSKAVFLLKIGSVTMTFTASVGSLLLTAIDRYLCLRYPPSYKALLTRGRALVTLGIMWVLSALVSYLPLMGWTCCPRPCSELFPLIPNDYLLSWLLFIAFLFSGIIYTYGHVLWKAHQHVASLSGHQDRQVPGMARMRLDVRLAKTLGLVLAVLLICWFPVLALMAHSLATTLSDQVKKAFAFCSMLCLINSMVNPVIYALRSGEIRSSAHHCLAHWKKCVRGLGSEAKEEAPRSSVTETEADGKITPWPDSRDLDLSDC
Sequence of human CB1 receptors (P21554 whole entry): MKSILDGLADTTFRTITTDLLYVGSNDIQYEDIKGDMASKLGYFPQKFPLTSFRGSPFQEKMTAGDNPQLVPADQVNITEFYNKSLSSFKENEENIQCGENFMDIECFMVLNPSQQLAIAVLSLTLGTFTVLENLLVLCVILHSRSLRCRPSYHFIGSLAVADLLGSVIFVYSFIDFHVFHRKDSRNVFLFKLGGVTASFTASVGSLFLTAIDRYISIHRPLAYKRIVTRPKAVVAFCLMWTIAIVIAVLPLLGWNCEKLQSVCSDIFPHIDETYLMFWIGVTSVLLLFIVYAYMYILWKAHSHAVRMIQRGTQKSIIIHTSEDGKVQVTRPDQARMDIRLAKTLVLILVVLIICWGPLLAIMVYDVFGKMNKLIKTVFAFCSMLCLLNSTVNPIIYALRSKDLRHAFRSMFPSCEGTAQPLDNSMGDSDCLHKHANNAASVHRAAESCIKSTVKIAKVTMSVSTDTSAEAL

The EC50 is the midpoint of the concentration-response curve. Low values mean higher potency in that assay, high ones lower potency in that assay. On to `Cc1nonc1Cn1cnc2c(N3CCC[C@@H]3CO)nc(C(C)(C)C)nc21` [Example 145, [(2R)-1-[2-tert-butyl-9-[(4-methyl-1,2,5-oxadiazol-3-yl)methyl]purin-6-yl]pyrrolidin-2-yl]methanol], for which the EC50 at human CB1 receptors was greater than 10000 nM; on human CB2 receptors it was 6.1 nM.
The like results for `CC1(O)CCN(c2nc(C(C)(C)C)nc3c2ncn3Cc2cccc(Cl)c2)C1` (centres unmarked) [Example 65, 1-[2-tert-butyl-9-[(3-chlorophenyl)methyl]purin-6-yl]-3-methylpyrrolidin-3-ol] were, in that order, greater than 10000 nM and 91.6 nM.
Consider `CC(C)(C)c1nc(N2CCC(F)(F)C2)c2ncn(Cc3ccccc3S(C)(=O)=O)c2n1` [Example 18, 2-tert-butyl-6-(3,3-difluoropyrrolidin-1-yl)-9-[(2-methylsulfonylphenyl)methyl]purine], for which the EC50 was greater than 10000 nM at human CB1 receptors and 3.3 nM at human CB2 receptors.
As to `CC(C)(C)c1nc(N2CCC(O)C2)c2ncn(C3CCOC3)c2n1` (centres unmarked) [Example 46, 1-[2-tert-butyl-9-(oxolan-3-yl)purin-6-yl]pyrrolidin-3-ol], the EC50 on human CB1 receptors was greater than 10000 nM; on human CB2 receptors, 139 nM.
On to `CC(C)(C)COc1nc(N2CCC(F)(F)C2)c2ncn(Cc3ccccc3S(C)(=O)=O)c2n1` [Example 126, 6-(3,3-difluoropyrrolidin-1-yl)-2-(2,2-dimethylpropoxy)-9-[(2-methylsulfonylphenyl)methyl]purine], for which the EC50 on human CB1 receptors was greater than 10000 nM; on human CB2 receptors, 24.5 nM.
Take `CC(C)(C)COc1nc(N2CCC(C)(O)C2)c2ncn(Cc3ccccc3Cl)c2n1` (centres unmarked) [Example 131, 1-[9-[(2-chlorophenyl)methyl]-2-(2,2-dimethylpropoxy)purin-6-yl]-3-methyl pyrrolidin-3-ol]: the concentration giving a half-maximal response (EC50) on human CB1 receptors is greater than 10000 nM; on human CB2 receptors, 66.7 nM.
Take `COc1ccc(Cn2cnc3c(N4CCC(F)(F)C4)nc(C(C)(C)C)nc32)cc1` [Example 20, 2-tert-butyl-6-(3,3-difluoropyrrolidin-1-yl)-9-[(4-methoxyphenyl)methyl]purine]: the EC50 on human CB1 receptors was greater than 10000 nM; on human CB2 receptors, 12.5 nM.
Consider `CC1(O)CCN(c2nc(C(C)(C)C)nc3c2ncn3Cc2ccccc2C(F)(F)F)C1` (centres unmarked) [Example 67, 1-[2-tert-butyl-9-[[2-(trifluoromethyl)phenyl]methyl]purin-6-yl]-3-methylpyrrolidin-3-ol], for which the EC50 on human CB1 receptors was greater than 10000 nM; at human CB2 receptors, 9 nM.
Regarding `CC1(O)CCN(c2nc(C(C)(C)C)nc3c2ncn3Cc2n[nH]cc2C(F)(F)F)C1` (centres unmarked) [Example 85, 1-[2-tert-butyl-9-[[4-(trifluoromethyl)-1H-pyrazol-3-yl]methyl]purin-6-yl]-3-methylpyrrolidin-3-ol], the EC50 on human CB1 receptors is greater than 10000 nM; on human CB2 receptors it was 22.1 nM.
Regarding `CCn1cnc2c(N3CCC(O)C3)nc(C(C)(C)C)nc21` (centres unmarked) [Example 35, 1-(2-tert-butyl-9-ethylpurin-6-yl)pyrrolidin-3-ol], the EC50 at human CB1 receptors was greater than 10000 nM; at human CB2 receptors it was 432 nM.
The like results for `COc1ccc(Cn2cnc3c(N4CCC(O)C4)nc(C(C)(C)C)nc32)cc1` (centres unmarked) [Example 31, 1-[2-tert-butyl-9-[(4-methoxyphenyl)methyl]purin-6-yl]pyrrolidin-3-ol] were, in that order, greater than 10000 nM and 21.4 nM.
`CC(C)(C)c1nc(N2CC[C@H](O)C2)c2ncn(Cc3cccnc3Cl)c2n1` [Example 91, (3S)-1-[2-tert-butyl-9-[(2-chloropyridin-3-yl)methyl]purin-6-yl]pyrrolidin-3-ol]: the EC50 at human CB1 receptors is greater than 10000 nM; on human CB2 receptors it was 1.7 nM.
The like results for `CC(C)(C)Nc1nc(N2CCC(F)(F)C2)c2ncn(CCC(F)(F)F)c2n1` [Example 110, N-tert-butyl-6-(3,3-difluoropyrrolidin-1-yl)-9-(3,3,3-trifluoropropyl)purin-2-amine] were, in that order, greater than 10000 nM and 18.3 nM.
